# Results as given in patent US8673911B2, “Inhibitors of histone deacetylase” (MethylGene Inc., priority 2007, dated 2014).
# Biological target: one or more of HDAC4, HDAC5, HDAC6, HDAC7, HDAC8, HDAC9 and HDAC11
# Assay: Inhibition of histone deacetylase enzymatic activity (fluorogenic Boc-Lys(Ac)-AMC / Boc-Lys(trifluoroacetyl)-AMC substrate)
# Assay type: biochemical
# Details: against one or more of HDAC4, HDAC5, HDAC6, HDAC7, HDAC8, HDAC9 and HDAC11
# Procedure: Inhibition of HDAC-1,2,3,6 and 8
# The following protocol is used to assay the compounds of the invention. In the assay, the buffer used is 25 mM HEPES, pH 8.0, 137 mM NaCl, 2.7 mM KCl, 1 mM MgCl2 and the substrate is Boc-Lys(Ac)-AMC in a 50 mM stock solution in DMSO. The enzyme stock solution is 4.08 μg/mL in buffer.
# The compounds are pre-incubated (2 μl, in DMSO diluted to […] in buffer for transfer to assay plate) with enzyme (20 μL of 4.08 μg/mL) for 10 minutes at room temperature (35 μL pre-incubation volume). The mixture is pre-incubated for 5 minutes at room temperature. The reaction is started by bringing the temperature to 37° C. and adding 15 μL substrate. Total reaction volume is 50 μL. The reaction is stopped after 20 minutes by addition of 50 μL developer, prepared as directed by Biomol (FLUOR DE LYS™ developer, Cat. # KI-105). A plate is incubated in the dark for 10 minutes at room temperature before reading (λEx=360 nm, λEm=470 nm, Cutoff filter at 435 nm).
# Inhibition of Class II HDAC and HDAC-11
# A 30 mM stock of Boc-Lys(trifluoroacetyl)-AMC substrate is prepared in DMSO. 2 μL test compound in DMSO is diluted to 50 μL in buffer (25 mM HEPES, pH 8.0, 137 mM NaCl, 2.7 mM KCl, 1 mM MgCl2, 0.1% BSA) and pre-incubated with HDAC enzyme (30 μL of a final enzyme concentration of 0.1-0.2 nM) for 10 minutes at room temperature. Reaction is started by adding 18 μL Boc-Lys(trifluoroacetyl)-AMC substrate and incubating at 37° C. for 20-30 minutes. The reaction is stopped by adding 50 μL trypsin (1 mg/mL) and a known HDAC inhibitor. The plate is then incubated in the dark for 20 minutes at room temperature and read with Ex=360 nm, Em=470 nm, cutoff filter at 435 nm.
row,IC50 [nM],SMILES
1,500 to 750,"COc1ccc(S(=O)(=O)Nc2ccc3sc(C(=O)NO)c(-c4ccccc4)c3c2)cc1 [Compound 154, N-hydroxy-5-(4-methoxyphenyl-sulfonamido)-3-phenylbenzo[b] thiophene-2-carboxamide]"
2,500 to 750,"COc1cccc(-c2cc(F)ccc2C(=O)NO)c1 [Compound 98, 5-fluoro-N-hydroxy-3′-methoxybiphenyl-2-carboxamidc]"
3,< 250,"O=C(NO)c1ccc(C2=Nc3ccccc3Oc3ccccc32)cc1-c1ccccc1 [Compound 104, (Z)-5-(dibenzo[b,f][1,4]oxazepin-11-yl)-N-hydroxybiphenyl-2-carboxamide]"
4,< 250,"CCOC(=O)N1CCC(c2nc(-c3ccccc3)c(C(=O)NO)s2)CC1 [Compound 147, ethyl 4-(5-(hydroxycarbamoyl)-4-phenylthiazol-2-yl)piperidine-1-carboxylate]"
5,< 250,"O=C(NO)c1sc(C2CCN(S(=O)(=O)c3ccccc3)CC2)nc1-c1ccccc1 [Compound 151, N-hydroxy-4-phenyl-2-(1-(phenylsulfonyl)piperidin-4-yl)thiazole-5-carboxamide]"
6,< 250,"CS(=O)(=O)N1CCC(c2nc(-c3ccccc3)c(C(=O)NO)s2)CC1 [Compound 148, N-hydroxy-2-(1-(methylsulfonyl)piperidin-4-yl)-4-phenylthiazole-5-carboxamide]"
7,< 250,"O=C(NO)c1sc(-c2ccncc2)nc1-c1ccccc1 [Compound 122, N-hydroxy-4-phenyl-2-(pyridin-4-yl)thiazole-5-carboxamide]"
8,< 250,"O=C(NO)c1sc(C2CCN(C(=O)N3CCCC3)CC2)nc1-c1ccccc1 [Compound 145, N-hydroxy-4-phenyl-2-(1-(pyrrolidine-1-carbonyl)piperidin-4-yl)thiazole-5-carboxamide]"
9,< 250,"O=C(Cc1ccc(C(F)(F)F)cc1)Nc1ccc(C(=O)NO)c(-c2ccccc2)c1 [Compound 155, N-hydroxy-5-(2-(4-(trifluoromethyl)phenyl)acetamido) biphenyl-2-carboxamide]"

# The next lines start with the molecule.
row,SMILES,IC50 [nM]
1,"O=C(NO)c1ccccc1-c1cccc(F)c1 [Compound 27, 3′-fluoro-N-hydroxybiphenyl-2-carboxamide]",750 to 5000
2,"O=C(NO)c1ccccc1-n1cccc1 [Compound 21, N-hydroxy-2-(lH-pyrrol-1-yl)benzamide]",750 to 5000
3,"COc1cccc(-c2cc(C)ccc2C(=O)NO)c1 [Compound 33, N-hydroxy-3′-methoxy-5-mcthylbiphenyl-2-carboxamide]",500 to 750
4,"COc1ccc(-c2nc(-c3ccc(F)cc3)c(C(=O)NO)s2)cc1 [Compound 80, 4-(4-fluorophenyl)-N-hydroxy-2-(4-methoxyphenyl)thiazole-5-carboxamide]",< 250
5,"COc1cccc(-c2ccccc2C(=O)NO)c1 [Compound 19, N-hydroxy-3′-melhoxybipheny 1-2-carboxamide]",750 to 5000
6,"O=C(NO)c1sc(-c2ccccc2)cc1-c1ccccc1 [Compound 92, N-hydroxy-3,5-diphenylthiophene-2-carboxamide]",< 250
7,"O=C(NO)c1sc(-c2ccccc2)cc1-c1ccccc1 [Compound 86, N-hydroxy-3,5-diphenylthiophene-2-carboxamide]",< 250
8,COc1cccc(-c2ccc(C(=O)NO)c(-c3cccc(OC)c3)c2)c1 [Compound 50],750 to 5000
9,"O=C(NO)c1sc(-c2ccccc2)cc1-c1ccccc1 [Compound 89, N-hydroxy-3,5-diphenylthiophene-2-carboxamide]",250 to 500
10,"O=C(NO)c1sc(-c2ccccc2)nc1-c1ccccc1 [Compound 74, N-hydroxy-2,4-diphenylthiazole-5-carboxamide]",< 250
11,"O=C(NO)c1ccccc1-c1cccc([N+](=O)[O-])c1 [Compound 26, N-hydroxy-3′-nitrobiphenyl-2-carboxamide]",750 to 5000
12,"Cc1cscc1-c1cccc(-c2ccccc2C(=O)NO)c1 [Compound 29, N-hydroxy-3′-(4-methyl-thiophen-3-yl) biphcnyl-2-carboxamidc]",500 to 750
